# Laboratory results published in patent US6413508B1, “Green leaf volatiles as synergists for insect pheromones” (The United States of America as represented by the …, priority 1988, dated 2002).
# Tests used:
# Boll Weevils [1] = experiment: Competitive field tests in Mississippi cotton fields, 4-week test period; format: in vivo, Anthonomus grandis; conditions: 10 mg and 100 mg, P<0.01, paired t-test
# Description: Three cotton fields were used in this study to determine the effectiveness of trans-2-hexen-1-ol in synergizing grandlure in a practical situation. The experimental design consisted of placing four traps at the corners of a 20-m square within a cotton field of ca. 1 acre. Four additional traps were placed a few meters outside the cotton field, located near imaginary diagonal lines extending through the corners of the square within the field. Each trap contained a cigarette filter with 1 mg of grandlure. Cigarette filters containing trans-2-hexen-1-ol were placed alternately in the traps. The result resembled an “X” array of traps placed across each field with each arm of the “X” consisting of four traps, two within and two outside of the field. Traps within one arm contained grandlure 1 mg alone; those within the other arm were baited with grandlure 1 mg+trans-2-hexen-1-ol at a particular dosage. Only one dosage of the synergist occurred in each field. Dosages of trans-2-hexen-1-ol tested were: 1 mg, 10 mg, and 100 mg. Traps were freshly baited each week and checked daily at 1500 hrs for 3 days and at the end of the week.
# Boll Weevils [2] = experiment: Competitive field test with released weevils, triangular trap array; format: in vivo, Anthonomus grandis
# Description: Two series of field tests were performed involving released boll weevils, in which grandlure was placed in competition with grandlure + the synergist. In the first series of experiments, a triangular array of traps was used. One trap was placed at each corner of a 20 m equilateral triangle (total of three traps). The three treatments released in this triangular array of traps were: 1) grandlure 3 mg; 2) grandlure 3 mg+synergist 100 mg; and 3) synergist 100 mg. The three synergists tested in these experiments were: trans-2-hexen-1-ol, 1-hexanol, and cis-3-hexen-1-ol. Cigarette filters were used to release the experimental odorants. One hundred insets (50 males and 50 females) were released along a line 20 m from each side of the triangle (300 insects total) at ca. 1000 hrs prior to baiting of the traps at 1200 hrs. Traps were check and insects were removed at 1400 hrs, 1600 hrs, and 1800 hrs, the times at which the test was terminated.
# [3] = system: Single Olfactory Cells Responsive to Volatiles Emanating from a Crushed Cotton Square; experiment: Single-cell electrophysiology: action potentials from single olfactory cells; format: cell-based, Anthonomus grandis
# Excerpt: Single-cell recording techniques are described in detail elswhere [Dickens, Mitt. Schweiz. Entomol. Ges. 52: 203 (1979); Dickens et al., J. Chem. Ecol. 10: 583 (1984)]. In brief, microelectrodes used for recordings were constructed from 50.8 μm diameter tungsten wire electrolytically sharpened to a tip of 1-2 μm. The recording electrode was positioned under optical control (150-200 X) with a Leitz high-power micromanipulator near either the base of one of the three sensory bands encircling the club, or the base of an individual sensillum just distal to each sensory band region. The ground electrode was inserted in either the rostrum or distal end of the scape. Action potentials were amplified and conditioned by a Grass P-15 preamplifier and Tektronix 5A22N amplifier prior to visualization on a Tektronix 5223 digitizing oscilloscope. The signal then passed through a Teac R51-D data recorder for recording on cassette tapes prior to visualization on a Tektronix 5111 analog oscilloscope. Data were photographed from the analog oscilloscope with a Tektronix C-5C oscilloscope camera. Trains of action potentials were counted visually.
# Upon obtaining a single cell preparation, odorous stimuli were presented every 3 min. […] The first two stimuli tested were volatiles emanating from 1 μg of grandlure, followed by volatiles emanating from a crushed cotton square. These two stimuli served to determine whether the cell was activated by the attractive pheromone of the boll weevil and/or volatiles emanating from its food source.
# Boll Weevils [4] = experiment: Competitive field test with released weevils, four trap array; format: in vivo, Anthonomus grandis
# Excerpt: The second series of experiments involved an array of four traps. […] The two treatments being tested simultaneously in this competitive arrangement were placed alternately in the traps, i.e., the two traps baited with the same treatment were located diagonally from each other. Odorants diluted in hexane were released from glass capillaries placed in small vials in a container in each trap. […] Traps were then immediately baited. In each test, traps were checked and insects were removed at 1530 hrs and 1700 hrs on the day of release, and before 0900 hrs the next day (the time at which the test was terminated) in order to remove those insects which might have responded prior to darkness on the day of release.
# Arizona boll weevils [5] = experiment: Arizona initial field experiment, 24 traps in a straight line, four treatments; format: in vivo, Anthonomus grandis; conditions: 1, 10, 100 mg with grandlure 1 mg
# Description: Since boll weevils in this region differ genetically from those in the southeastern United States [Burke, Texas Agric. Exp. Sta. Tech. Rep., 152 pp. (1968)], these tests were performed to determine if green leaf volatiles would also enhance capture of Arizona boll weevils in traps baited with the aggregation pheromone.
# In the initial field experiment, 24 traps were placed 30 m apart in a straight line along a road near Phoenix and were baited with four different treatments: 1) grandlure 1 mg; 2) grandlure 1 mg+trans-2-hexen-1-ol 1 mg; 3) grandlure 1 mg+trans-2-hexen-1-ol 10 mg; 4) grandlure 1 mg+trans-2-hexen-1-ol 100 mg. All compounds were released from cigarette filters after mixing in a solution to retard their rate of release, as previously described [McKibben et al., supra]. Treatments were arranged in six blocks with the four treatments randomized within each block. Traps were checked the next day.
# [6] = system: Over-Wintered Boll Weevils; experiment: Competitive field test with over-wintered boll weevils, 3 weeks; format: in vivo, Anthonomus grandis; conditions: trans-2-hexen-1-ol 10 mg changed weekly, grandlure Hercon wafer 2.5 mg kept 3 wk
# Description: The efficacy of the synergist in enhancing response of over-wintered boll weevils to grandlure was evaluated during the first 3 wks of May 1988, prior to the planting of cotton. In this experiment, the synergist trans-2-hexen-1-ol at 10 mg was released from a cigarette filter, in combination with a Hercon wafer formulation of grandlure at 2.5 mg. The grandlure formulation remained in the trap for the entire 3-wk period, while the cigarette filter containing the synergist was changed each week. During both the first and second weeks, trap captures increased for both the pheromone alone and for the pheromone+the synergist, presumably reflecting increasing numbers of boll weevils emerging from over-wintering sites (Table VII). However, while trap captures continued to increase for the pheromone+synergist during the third week, the number of boll weevils captured by the pheromone alone declined.
# Arizona boll weevils [7] = experiment: Arizona third field experiment, traps around 20 cotton fields; format: in vivo, Anthonomus grandis; conditions: grandlure 5 mg + trans-2-hexen-1-ol 10 mg
# Description: In a third field experiment, 20 cotton fields were selected. Three traps were placed at least 100 m apart along the edge of each field (60 traps total). The three traps were baited with one of the following treatments: 1) a 10-mg grandlure “Hercon” wafer; 2) 5 mg of grandlure in the same “Hercon” formulation; 3) the 5-mg grandlure
# formulation+10 mg of trans-2-hexen-1-ol. The traps were checked daily and weevils were removed for the next 2 days.
# [8] = volatiles emanating from 1 μg of odorant, cell responsive to crushed cotton square
structure (smiles),measurement,setting,value
CCC/C=C/CO [trans-2-hexen-1-ol],weevils captured in combination with grandlure 1 mg vs grandlure alone at 1 mg,Boll Weevils [1],captured more weevils of both sexes
same,% Total,Boll Weevils [2]; grandlure 3 mg vs trans-2-hexen-1-ol 100 mg vs both,5.9%
same,Mean Trap Capture,"Boll Weevils [2]; grandlure 3 mg vs trans-2-hexen-1-ol 100 mg vs both, three replicates",1.3 A
same,activity alone in competition with the other treatments,"Boll Weevils [2]; triangular array, 100 mg alone",relatively inactive
same,"attraction of grandlure on addition of the compound, relative to grandlure alone","Boll Weevils [2]; triangular array, grandlure 3 mg, synergist 100 mg",significantly increased
same,response of cells activated by volatiles from the crushed cotton square,[3]; single olfactory cells,activated
same,"Response in impulses/initial 500 msec, Cell #1",[3]; [8],83 impulses/initial 500 msec
same,"Response in impulses/initial 500 msec, Cell #2",[3]; [8],67 impulses/initial 500 msec
same,"Response in impulses/initial 500 msec, Cell #3",[3]; [8],50 impulses/initial 500 msec
same,"Response in impulses/initial 500 msec, Cell #4",[3]; [8],33 impulses/initial 500 msec
same,trap capture in combination with grandlure (0.8 mg) in competition with grandlure (0.8 mg) alone,"Boll Weevils [4]; 0.1 mg, P<0.10, paired t-test",increased trap capture
same,synergism with grandlure (0.8 mg) in competition with grandlure (0.8 mg) alone,Boll Weevils [4]; 1.0 mg of the compound,even more apparent
same,effectiveness in combination with grandlure (0.8 mg) vs the combination with 1-hexanol,Boll Weevils [4]; each presented with grandlure 0.8 mg in a competitive experiment,more effective
same,effect of addition on trap capture over grandlure alone,Arizona boll weevils [5],enhanced trap capture
same,effect of the synergist on effectiveness of the pheromone with time,[6],extend the effectiveness of the pheromone
same,effect of addition to grandlure on attractiveness over the 10-mg grandlure treatment,Arizona boll weevils [7],enhanced its attractiveness
